Experimental data taken from patent US20130203649A1, “INHIBITORS OF TLR SIGNALING BY TARGETING TIR DOMAIN INTERFACES” (UNIVERSITY OF MARYLAND, BALTIMORE, priority 2012, published 2013).
Where “and” joins values, the source holds several entries; their conditions need not be identical. Equal values may be shown once. Entries after “also recorded” stand apart in the source; their conditions may differ. Residues, ends and D or L forms follow the SMILES beside them. No end group written: not given here.

Tests used:
[1] = target: T1, TLR2/TLR1 heterodimer (Mus musculus, UniProt Q9QUN7); test: P3C-induced cytokine mRNA expression in mouse macrophages; format: cell-based; conditions: peptide 30 min; P3C 500 ng/ml 1 hour (FIG. 15A)
T1 construct: endogenous in cells; host or cells: thioglycollate-elicited mouse peritoneal macrophages
T1 sequence (Q9QUN7 25-784, one chain of several): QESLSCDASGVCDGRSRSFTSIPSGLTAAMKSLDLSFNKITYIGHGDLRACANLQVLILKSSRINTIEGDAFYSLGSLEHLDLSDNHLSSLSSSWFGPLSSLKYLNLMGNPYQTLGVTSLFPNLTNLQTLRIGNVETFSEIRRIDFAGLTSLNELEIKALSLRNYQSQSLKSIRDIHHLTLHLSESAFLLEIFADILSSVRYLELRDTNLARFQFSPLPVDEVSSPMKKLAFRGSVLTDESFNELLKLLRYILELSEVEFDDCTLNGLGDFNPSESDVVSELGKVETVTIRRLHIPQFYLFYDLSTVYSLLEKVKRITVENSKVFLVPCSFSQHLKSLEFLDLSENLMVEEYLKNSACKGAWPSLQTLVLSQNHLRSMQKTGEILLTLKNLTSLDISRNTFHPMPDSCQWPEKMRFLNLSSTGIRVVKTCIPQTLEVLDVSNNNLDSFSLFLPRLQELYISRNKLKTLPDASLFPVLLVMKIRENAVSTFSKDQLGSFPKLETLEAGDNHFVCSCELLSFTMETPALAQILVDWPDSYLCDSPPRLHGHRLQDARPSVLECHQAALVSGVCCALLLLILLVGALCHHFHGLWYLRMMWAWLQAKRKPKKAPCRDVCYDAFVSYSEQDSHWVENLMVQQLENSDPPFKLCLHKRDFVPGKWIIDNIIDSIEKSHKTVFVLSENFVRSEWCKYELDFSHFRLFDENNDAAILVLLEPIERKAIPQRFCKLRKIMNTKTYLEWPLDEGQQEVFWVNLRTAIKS
Text: (§1) Total cellular RNA was isolated using Tripure from Roche (San Francisco, Calif.) following manufacture's protocol. RNA was then reverse transcribed using AMV Reverse Transcriptase from Promega (Madison, Wis.) with poly-T priming as per manufacturer's directions. cDNA was then quantified by real-time PCR using Applied Biosystems Fast SYBR Green PCR Master Mix and an ABI Prism 7500HT cycler. Primers used for detection: hypoxanthine phosphoribosyltransferase (HPRT) (forward: […] (SEQ ID NO:51), reverse: […] (SEQ ID NO:52)), TNFα (forward: […] (SEQ ID NO:53), reverse: […] (SEQ ID NO:54)), IL-1β (forward: […] (SEQ ID NO:55), reverse: […] (SEQ ID NO:56)), IFNβ (forward: […] (SEQ ID NO:57), reverse: CTCGGACCACCATCCAGG (SEQ ID NO:58)) and RANTES (forward: […] (SEQ ID NO:59), reverse: […] (SEQ ID NO:60)). The primers were designed using Primer Express 2.0 (Applied Biosystems). Using HPRT as reference, the ΔCt method was used to calculate relative gene expression. One-way ANOVA was preformed, as well as Dunnett's multiple comparison post hoc test with a p≦0.01 selected as the level of significance.
(§2) Protein-free Escherichia coli K235 LPS was used at final concentration of 10 ng/ml to stimulate cells. S-[2,3-bis(palmitoyloxy)-(2-RS)-propyl]-N-palmitoyl-(R)-Cys-Ser-Lys4-OH (P3C) and S-[2,3-bis(palmitoyloxy)-(2-RS)-propyl]-[R]-Cys-Ser-Lys4-OH (P2C) were purchased from EMC microcollections GmbH (Tubingen, Germany) and used for cell stimulation at 500 and 50 ng/ml, respectively. Phospho-ERK1/2 and phospho-JNK1/2 rabbit Abs were obtained from Cell Signaling Technology, Inc. β-actin rabbit Ab were from SantaCruz Biotechnology, Inc.
(§3) Because of the role TRAP plays in TLR2 signaling, TIRAP TIR-derived decoy peptide effects on TLR2-induced cytokine mRNA expression were examined. Thioglycollate-elicited mouse macrophages were stimulated either by P2C, an agonist that induces signaling through TLR2/TLR6 heterodimerization, or P3C, a TLR2/TLR1 agonist, and effects of TIRAP TR-derived decoy peptides on induction of cytokine mRNA were examined. […] To confirm the inhibitory effect of TR3 and TR6 on P3C-induced signaling, IL-6 and TNF-α concentration was measured in macrophage supernatants collected 5 h after stimulation of cells with P3C. […] Concordantly, both TR3 and TR6 diminished the P3C-induced ERK phosphorylation (FIG. 3D).
(§4) C57BL/6J mice were obtained from The Jackson Laboratory (BarHarbor, Me.). Harvesting, culturing, and stimulation of peritoneal macrophages were described in previous publications (1, 18, 19). Escherichia coli K235 LPS (34) was used at the final concentration of 100 ng/ml. The 2,3-bis(palmitoyloxy)-(2-RS)-propyl-N-palmitoyl-(R)-Cys-Ser-Lys4-OH (P3C) and S[2,3-bis(palmitoyloxy)-(2-RS)-propyl]-[R]-Cys-Ser-Lys4-OH (P2C) (EMC Microcollections, Tubingen, Germany) were used at 500 and 50 ng/ml, respectively. Oligonucleotide (ODN) 1668 and low m.w. polyinosinic-polycytidylic acid [poly(I:C)] in complex with LyoVec were obtained from InvivoGen; these agonists were used at 2.5 μM and 400 ng/ml, respectively.

[2] = target: T2, TLR2/TLR6 heterodimer (Mus musculus, UniProt Q9QUN7); test: P2C-induced cytokine mRNA expression in mouse macrophages; format: cell-based; conditions: peptide 30 min; P2C 50 ng/ml 1 hour (FIG. 15B)
T2 construct: endogenous in cells; host or cells: thioglycollate-elicited mouse peritoneal macrophages
T2 sequence (Q9QUN7 25-784, one chain of several): as above
Text: as §1, §2, §3, §4

[3] = target: T3, TLR2 (Mus musculus, UniProt Q9QUN7); test: Inhibition of TLR2 signaling in thioglycollate-elicited mouse macrophages (effective concentration, TLR2 agonists P3C/P2C); format: cell-based; conditions: for Effective conc.: TLR2 pathway, thioglycollate-elicited mouse macrophages
T3 construct: Primary peritoneal macrophages were obtained by peritoneal lavage; endogenous in cells; host or cells: thioglycollate-elicited mouse peritoneal macrophages
T3 sequence (Q9QUN7 25-784): as the sequence (Q9QUN7 25-784, one chain of several) above
Protocol: (§5) C57BL/6J mice were obtained from The Jackson Laboratory (Bar Harbor, Me.). Primary peritoneal macrophages were obtained by peritoneal lavage 4 days after intraperitoneal injection (3 ml) of sterile 3% thioglycolate broth. Washed cells were resuspended in RPMI 1640 which contained 2% FBS, 1% penicillin:streptomycin and 2 mM L-glutamine. After plating, cells were incubated overnight at 37° C. and then washed with PBS to remove non-adherent cells. Cells were exposed to peptides 30 min before stimulation with a TLR agonist.
as §2, §3, §4

[4] = system: C57BL/6J mice; test: In vivo efficiency of decoy peptides (Table 1; LPS challenge in mice); set-up: species or system mouse
Protocol: FIG. 4. Effect of select TRAP decoy peptides on TNF-α and IL-6 in blood following an ip LPS challenge. C57BL/6J mice were injected with TR5, TR6, or TR7 peptide or mock-treated 1 hour before injection of purified E. coli LPS. Peptides and LPS were injected to mice intraperitonealy 10 nmol or 1 μg per gram of animal weight, correspondingly.
(§6) FIG. 10. […] (A-E) C57BL/6J mice were injected i.p. with purified Escherichia coli K235 LPS (1 μg/g) or PBS. Peptides (10 nmol/g of animal weight) were injected i.p. (A, B, D, E) or i.v. (C) 1 h before (A, B, and C) or 30 min after (D, E) i.p. injection of LPS. Data in panels A and D show plasma IL-6 and TNF-α levels measured 2 h after LPS challenge. Peptide TM8/9 was used as a non-inhibitory control peptide. Data represent the means±s.e.m. for 6-12 blood samples obtained in at least three independent experiments. *p<0.01. (F, G) C57BL/6J mice were challenged i.p. with a lethal LPS dose (17.5 μg/g). Peptides (10 nmol/g) were injected i.p. 1 h before LPS challenge. […] The statistical significance of changes in mortality and survival time was determined by the Mantel Cox log-rank test using GraphPad Prism software (Version 5.04). *p<0.01.
(§7) Eight-week-old C57BL/6J mice were injected with 1 or 17.5 μg/g animal weight of E. coli K235 LPS i.p. Peptides reconstituted in PBS were administered i.p. or i.v. Control groups received equivalent volume of solvent (PBS). The blood samples were collected 1, 2, 4, and 8 h, or 2, 8, and 24 h after LPS challenge. The plasma samples were obtained and kept frozen until TNF-α and IL-6 were measured by ELISA. Survival of animals was monitored every 6-16 h after LPS challenge. All animal experiments were carried out with institutional approval.

[5] = system: TLR4; test: Inhibition of TLR4 signaling in thioglycollate-elicited mouse macrophages (effective concentration, overall inhibitory activity); format: cell-based; conditions: for Effective conc.: TLR4 pathway, thioglycollate-elicited mouse macrophages
Protocol: as §5
TIRAP/Mal functions to facilitate MyD88 recruitment to the activated TLR4 and TLR2, presumably through a simultaneous interaction with receptor and MyD88 TIR domains. Therefore, multiple TIR:TIR interaction sites are expected in TIRAP TIR. The decoy peptide approach was used to obtain leads on the functional protein-protein interfaces within TIRAP/Mal, a TLR adapter protein. To this end, eleven TIRAP TIR-derived decoy peptides were designed to be structurally homologous to the TLR4 TIR-derived decoy peptides used previously (1), so that each peptide represents a non-fragmented patch of the TIRAP TIR surface, with the entire domain encompassed by the set of peptides. The TIRAP TIR-derived decoy peptides were synthesized in tandem with the cell-permeating sequence of Antennapedia homeodomain (21) and each peptide was tested for the ability to inhibit TLR4 and TLR2 signaling in primary mouse macrophages. Peptide sequences and the structural regions they represent are shown in reference (30).
as §4

[6] = system: C57BL/6J mice; test: Survival after lethal LPS challenge in C57BL/6J mice; format: in vivo, mouse; conditions: LPS 17.5 μg/g i.p.
Protocol: as §6, §7
We next studied whether inhibitory peptides protect mice from a lethal LPS challenge. TR6, a previously described inhibitory peptide derived from the third helical region of TRAP (30), was also included in this study as an additional control. C57BL/6J mice were injected i.p. with 17.5 μg/g LPS. This dose induced 100% mortality in the control group (FIG. 10F). […] The peptide-treated survivors appeared active and healthy at the time the experiments were terminated, 7 d after injection of LPS.

[7] = system: C57BL/6J mice; test: Plasma TNF-α and IL-6 after sublethal LPS challenge in C57BL/6J mice; format: in vivo, mouse
Protocol: as §6, §7
We next studied whether peptides identified as inhibitory in in vitro tests are effective in vivo. C57BL/6J mice were challenged i.p. with a sublethal LPS dose (1 μg/g animal weight), and plasma TNF-α and IL-6 levels were monitored for 8 h after the challenge. In the first series of experiments, we injected 10 nmol/g TM4 or TM6 i.p. 1 h before LPS challenge. The 10 nmol/g dose corresponds to 38, 41, and 32 mg/kg TM4, TM6, and TM4-ΔC, respectively.

[8] = system: MAPK (ERK, JNK, p38); test: MAPK activation by peptide alone, macrophages without TLR agonist; format: cell-based, mouse; conditions: peptide alone; data not shown
Protocol: Neither TIRAP peptide activated ERK in cells incubated without a TLR agonist (not shown). […] The mechanism of this differential MAPK activation by select peptides, although interesting, is not understood at this time. Peptides TR9 and TR11 inhibited both ERK and JNK MAPKs (FIG. 1D). Peptide-induced inhibition of ERK persisted over a long period of time.
We next examined whether TRAM peptides inhibit the TLR4-mediated p38, ERK, and JNK MAPK activation. Murine macrophages pretreated with peptides for 30 min were challenged with LPS. Cell lysates were collected 30 min post-stimulation and analyzed for MAPK phosphorylation by Western analysis. Consistent with peptide effects on steady-state mRNA, both TM4 and TM6 inhibited activation of all three MAPKs (FIG. 5C). The inhibition of MAPKs by TM4 or TM6 was long lasting; it persisted for at least 1 h after LPS stimulation (data not shown). To characterize further the effects of TRAM peptides on MAPKs, murine macrophages were treated with TRAM peptides, but not challenged by LPS.

CC[C@H](C)[C@H](NC(=O)[C@H](CCCCN)NC(=O)[C@@H](NC(=O)[C@H](CCC(N)=O)NC(=O)[C@@H](N)CCCNC(=N)N)[C@@H](C)CC)C(=O)N[C@@H](Cc1c[nH]c2ccccc12)C(=O)N[C@@H](Cc1ccccc1)C(=O)N[C@@H](CCC(N)=O)C(=O)N[C@@H](CC(N)=O)C(=O)N[C@@H](CCCNC(=N)N)C(=O)N[C@@H](CCCNC(=N)N)C(=O)N[C@@H](CCSC)C(=O)N[C@@H](CCCCN)C(=O)N[C@@H](Cc1c[nH]c2ccccc12)C(=O)N[C@@H](CCCCN)C(=O)N[C@@H](CCCCN)C(=O)N[C@@H](CCCNC(=N)N)C(=O)N[C@@H](CCCCN)C(=O)N1CCC[C@H]1C(=O)N[C@@H](CCCCN)C(=O)N[C@@H](CCCCN)C(=O)N[C@@H](C)C(=O)N1CCC[C@H]1C(=O)N[C@@H](CS)C(=O)N[C@@H](CCCNC(=N)N)C(=O)N[C@@H](CC(=O)O)C(=O)N[C@H](C(=O)N[C@@H](CS)C(=O)N[C@@H](Cc1ccc(O)cc1)C(=O)N[C@@H](CC(=O)O)C(=O)O)C(C)C [Peptide 2R1] (H-RQIKIWFQNRRMKWKKRKPKKAPCRDVCYD-OH; N-terminus and C-terminus assumed)
Cytokine mRNA expression induced by P3C [1]: inhibit
Cytokine mRNA expression induced by P2C [2]: inhibit
Effective conc. [3]: 40 µM

RQIKIWFQNRRMKWKKCLQDAIDHS [TF5-ΔC]
In vivo efficiency [4]: Yes, i.p.
Effective conc. [5]: 20 µM

RQIKIWFQNRRMKWKKIVFAEMPCG [TM4-ΔC]
In vivo efficiency [4]: yes, i.p.
Survival after lethal LPS challenge ([6]; peptide 10 nmol/g i.p. 1 h before): rescued all animals and 10 of 10 and protect
Survival after lethal LPS challenge, therapeutic administration ([6]; peptide i.p. 3 h after LPS): Five of seven
Effective conc. [5]: 10 µM
Inhibitory activity of modified TM4 peptides on TLR4-driven MAPK activation and cytokine mRNA (FIG. 8) ([5]; relative ranking among TM4 variants): close to that of TM4
Plasma TNF-α and IL-6 ([7]; 10 nmol/g i.p. 30 min after LPS, 2 h after LPS or thereafter): markedly diminished
Circulating TNF-α and IL-6 ([7]; 10 nmol/g i.p. 30 min after LPS, measured 1 h after LPS): did not affect
Circulating IL-6 and TNF-α levels ([7]; 10 nmol/g i.v., LPS i.p., 8-h observation): significantly lowered
Efficiency with respect to circulating IL-6 at 4- or 8-h time points ([7]; dose increased to 25 nmol/g): did not augment
LPS-induced systemic cytokine response in vivo ([7]; sublethal LPS 1 μg/g, peptide 10 nmol/g): strongly suppress; also recorded: effectively suppress

RQIKIWFQNRRMKWKKPQRFCKLRKIMNT [Peptide 2R9]
Cytokine mRNA expression induced by P3C [1]: inhibit
Cytokine mRNA expression induced by P2C [2]: inhibit
TLR2-induced ERK activation ([3]; FIG. 16C): strongly inhibits
Effective conc. [3]: 40 µM

TM3: TRAM decoy peptide: Antennapedia sequence at N terminus of QNDFGIRPG (RQIKIWFQNRRMKWKKQNDFGIRPG)
p38 and ERK MAPK activation without LPS stimulation [8]: weakly activated
